Data from patent US8530423B2, “Anxiolytic compositions containing αs1-casein-derived peptides” (Universite de Lorraine, priority 2008, dated 2013).
Read-outs that look alike come from different tables or passages of the source. No end group written: not given here.

What was measured:
[1] = literature (ZIOUDROU et al., LOUKAS et al.); cited from earlier work
rat [2] = conditions: PCT/EP2007/063863; cited from earlier work
[3] = biological target: angiotensin-I converting enzyme (Homo sapiens, UniProt P12821); conditions: literature (MARUYAMA et al.); cited from earlier work
Chain of angiotensin-I converting enzyme (P12821 30-1306): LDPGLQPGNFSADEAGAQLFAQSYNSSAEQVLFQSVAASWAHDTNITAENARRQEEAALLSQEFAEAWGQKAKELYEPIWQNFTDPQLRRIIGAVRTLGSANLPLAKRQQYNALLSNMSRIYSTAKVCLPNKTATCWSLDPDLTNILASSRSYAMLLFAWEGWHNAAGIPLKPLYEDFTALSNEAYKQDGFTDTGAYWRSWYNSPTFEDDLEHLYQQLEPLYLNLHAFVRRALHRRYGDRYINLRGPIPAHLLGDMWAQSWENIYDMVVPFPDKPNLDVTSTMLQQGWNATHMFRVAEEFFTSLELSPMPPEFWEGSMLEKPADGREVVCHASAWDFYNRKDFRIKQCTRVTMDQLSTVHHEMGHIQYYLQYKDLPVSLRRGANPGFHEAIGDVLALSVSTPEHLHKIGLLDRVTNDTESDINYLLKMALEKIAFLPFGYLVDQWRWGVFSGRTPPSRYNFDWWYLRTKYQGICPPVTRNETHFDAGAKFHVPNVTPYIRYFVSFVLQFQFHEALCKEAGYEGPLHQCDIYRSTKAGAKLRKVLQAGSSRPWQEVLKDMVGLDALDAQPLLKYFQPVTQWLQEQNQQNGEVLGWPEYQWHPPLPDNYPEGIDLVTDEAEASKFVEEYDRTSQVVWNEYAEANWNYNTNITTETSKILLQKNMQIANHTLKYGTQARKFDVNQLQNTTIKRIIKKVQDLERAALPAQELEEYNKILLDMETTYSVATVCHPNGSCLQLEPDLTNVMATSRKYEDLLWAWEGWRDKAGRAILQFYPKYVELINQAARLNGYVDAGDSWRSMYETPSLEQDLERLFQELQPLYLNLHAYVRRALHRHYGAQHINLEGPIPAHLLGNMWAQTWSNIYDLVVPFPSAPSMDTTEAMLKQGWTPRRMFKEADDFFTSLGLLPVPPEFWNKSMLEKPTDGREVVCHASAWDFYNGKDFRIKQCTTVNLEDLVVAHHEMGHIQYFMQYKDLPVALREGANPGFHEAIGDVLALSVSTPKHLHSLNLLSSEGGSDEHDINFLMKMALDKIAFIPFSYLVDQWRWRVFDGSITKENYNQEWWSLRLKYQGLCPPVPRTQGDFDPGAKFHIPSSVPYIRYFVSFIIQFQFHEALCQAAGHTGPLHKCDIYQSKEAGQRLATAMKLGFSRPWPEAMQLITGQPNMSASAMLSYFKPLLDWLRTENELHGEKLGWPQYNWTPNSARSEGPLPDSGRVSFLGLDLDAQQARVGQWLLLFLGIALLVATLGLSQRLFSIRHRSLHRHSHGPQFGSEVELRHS

Wistar rat [4] = experiment: Light/dark box test; assay type: in vivo; conditions: for time spent in the familiar compartment / time spent in the unfamiliar, aversive compartment: p<0.05, n=12
Excerpt: The light/dark tests are based on the innate aversion of rodents for strongly illuminated environments and on their spontaneous exploratory behavior in response to mild stress factors such as a new environment and light. The light/dark box device enables the exploratory behavior of the rodent to be studied with regard to an unfamiliar aversive compartment (strongly illuminated with white light) after habituation in a non-aversive compartment (dark), which then becomes familiar [BOURIN and HASCOET, 2003 (17)]. Classic anxiolytics can be detected by using this device.
The light/dark box measures 65×49×35 cm (h×L×l) and is separated into two identical compartments by a plate with three 8×8-cm doors. The ground is covered with sawdust. Each rat is placed for 24 hours in the rear compartment of the box, and the doors communicating with the front compartment are made inaccessible. The rear compartment thus becomes the familiar compartment. The animal is fed and hydrated ad libitum. On the day of the test, the rat, after treatment, is again placed in the familiar compartment and the doors communicating with the front compartment (unfamiliar) are made accessible so that the animal can freely explore the environment. The unfamiliar compartment is made aversive by illumination with white light having an intensity of 1500 lx. The animals are observed for 10 minutes and the time spent in each of the compartments is measured.
The animals receive their respective treatments intraperitoneally one-half hour before the communication between the familiar compartment and the unfamiliar compartment is opened.

Wistar rat [5] = experiment: Elevated cross maze test; assay type: in vivo; conditions: for number of entries into the open arms / time spent in the open arms: p<0.05
Excerpt: The elevated cross maze test enables the density of the exploratory behavior in a new aversive situation to be measured [PELLOW et al., 1985 (16)]. The experiment exploits the conflict, in rodents, between the fear of open spaces and the desire to explore a new environment. The rat, placed at the center of the device, is forced to explore its environment. The open arms constitute an anxiety-producing environment, while this is not the case for the closed arms. The number of entries into all of the arms, the number of entries into the open arms, the number of entries into the closed arms, the time spent in the open arms, and the latency of entry into the first open arm constitute parameters reflecting the degree of anxiety of the animal.
The elevated cross maze, made of wood, consists of four branches at 90° to one another. The two open branches (45×10 cm) and the two closed branches (45×10 cm, surrounded by wood plates over a height of 40 cm) are arranged opposite one another. The central square measures 10×10 cm. The open branches are illuminated by a white light with an intensity of 500 lx. The elevated cross maze is located 50 cm from the ground.
The observations took place at between 9 and 11 o'clock in the morning in order to minimize the influence of the circadian rhythm. Before each passage through the elevated cross maze, the animal is placed for 10 minutes in an open field in order to stimulate its exploratory behavior. It is then placed in the central square of the elevated cross maze, and observed for 5 minutes. The cross maze is washed with 95% ethanol (v/v) between two passages so as to remove odors.
The animals receive their respective treatment intraperitoneally one-half hour before being placed in the open field.

rat [6] = experiment: in vivo behavioral tests in the rat; conditions: this application
[7] = EP 0714910; cited from earlier work
[8] = vehicle animals compared with animals treated 1 mg/kg intraperitoneally
[9] = vehicle animals compared with animals treated 1 mg/kg intraperitoneally, n=15
[10] = 0.5 mg/kg i.p. versus diazepam 1 mg/kg i.p.
[11] = 0.5 mg/kg intraperitoneally, Wistar rat
[12] = vehicle animals compared with animals treated 0.5 mg/kg intraperitoneally
[13] = vehicle animals compared with animals treated 0.5 mg/kg intraperitoneally, n=15

90-95: αs1-casein peptide 90-95 (RYLGYL; UniProt P02662 105-110, looked up, fragment) [reference compound]
in vitro opiate activity [1]: demonstrated in vitro opiate activity

90-96: αs1-casein peptide 90-96 (RYLGYLE; UniProt P02662 105-111, looked up, fragment) [reference compound]
in vitro opiate activity [1]: demonstrated in vitro opiate activity

91-97: peptide 91-97 derived from decapeptide, not containing arginine 100 (YLGYLEQ; UniProt P02662 106-112, looked up, fragment)
anxiolytic properties (rat [2]): show anxiolytic properties

91-98: peptide 91-98 derived from decapeptide, not containing arginine 100 (YLGYLEQL; UniProt P02662 106-113, looked up, fragment)
anxiolytic properties (rat [2]): show anxiolytic properties

91-99: peptide 91-99 derived from decapeptide, not containing arginine 100 (YLGYLEQLL; UniProt P02662 106-114, looked up, fragment)
anxiolytic properties (rat [2]): show anxiolytic properties

194-199: αs1-casein peptide 194-199 (TTMPLW; UniProt P02662 209-214, looked up, fragment)
angiotensin-I converting enzyme inhibition [3]: angiotensin-I converting enzyme inhibitors

CN1C(=O)CN=C(c2ccccc2)c2cc(Cl)ccc21 [diazepam, reference compound]
time spent in the familiar compartment (Wistar rat [4]; [8]): increases significantly | time spent in the unfamiliar, aversive compartment (Wistar rat [4]; [8]): significantly lower | number of entries into the open arms (Wistar rat [5]; [9]): significantly lower | time spent in the open arms (Wistar rat [5]; [9]): significantly lower

Tyr-Leu-Gly-Tyr-Leu (YLGYL; listed as Bos taurus) [αs1-casein fragment 91-95, Pentapeptide corresponding to positions 91-95 of αs1-casein]
difference versus diazepam in the light/dark box (Wistar rat [4]; [10]): No significant difference | action in the light/dark box test (Wistar rat [4]; [11]): anxiolytic-type action similar to that of diazepam | time spent in the familiar compartment (Wistar rat [4]; [12]): increases significantly | time spent in the unfamiliar, aversive compartment (Wistar rat [4]; [12]): significantly lower | difference versus diazepam in the elevated cross maze (Wistar rat [5]; [10]): No significant difference | number of entries into all of the arms (exploratory activity) (Wistar rat [5]; 0.5 mg/kg intraperitoneally one-half hour before open field, compared between treatments, n=15): not significantly different | action in the elevated cross maze test (Wistar rat [5]; [11]): an action similar to that of diazepam, i.e. an increase in the exploration of anxiety-producing zones | number of entries into the open arms (Wistar rat [5]; [13]): significantly lower | time spent in the open arms (Wistar rat [5]; [13]): significantly lower | anxiolytic properties (rat [6]): possible to demonstrate the anxiolytic properties | in vitro opiate activity [1]: practically inactive

YLGYLE [91-96, Hexapeptide corresponding to positions 91-96 of αs1-casein]
anxiolytic properties (rat [6]): possible to demonstrate the anxiolytic properties | in vitro opiate activity [1]: practically inactive

α-casozepine: αs1-casein fragment 91-100, decapeptide from αs1-casein tryptic hydrolysate (YLGYLEQLLR; UniProt P02662 106-115, looked up, fragment)
anxiolytic activity [7]: original anxiolytic activity
